Data on 13 compounds can be found in ChEMBL document CHEMBL1201862, “PubChem BioAssay data set” (2004).

Some test systems named below: A549; BT-549; CCRF-CEM; EKVX; HCT-15; HL-60; KM12; MDA-N; MOLT-4; NCI-H226; NCI-H23; OVCAR-8; SF-539; SK-MEL-2; SK-OV-3; T47D.
Common to all, as to assay: growth of human tumour cells (NCI), 48 h

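Each compound was tested at five concentrations against cells in 96-well plates for 48 hours. GI50 is the concentration that inhibits growth by half.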 The source made the active and inactive calls. Cut-off read from the data, not from the text of the source: active = GI50 up to about 1.1 µM and inactive = higher. A value given as a limit tells only on which side of the number the result lay.

With `COCCOCCOC1=C(Cl)C(=O)c2c(O)ccc(O)c2C1=O`, the GI50 in the experiment with A549 is 8.02 µM (inactive); in the experiment with BT-549 it was 2.15 µM (inactive); with CCRF-CEM, 0.414 µM (active); with EKVX it was 8.57 µM (inactive); with HCT-15, 1.61 µM; in the experiment on HL-60, 0.207 µM (active). For the same compound, the GI50 is 12.8 µM (inactive) in the experiment on KM12; 5.02 µM (inactive) with MDA-N; 0.303 µM (active) with MOLT-4; 18.1 µM (inactive) with NCI-H226; 2.48 µM (inactive) in the experiment on NCI-H23; 2.21 µM (inactive) in the experiment on OVCAR-8. Besides, the GI50 in the experiment with SF-539 was 1.67 µM (inactive); with SK-MEL-2 it was 1.17 µM (inactive); in the experiment with SK-OV-3, 19 µM (inactive); with T47D, 2.54 µM (inactive).
Turning to `COC1C(O)C(C)OC(O[C@@H]2C[C@H]3CC[C@@H]4[C@H](CC[C@]5(C)[C@@H](C6=CC(=O)OC6)CC[C@]45O)[C@@]3(C)[C@H](O)C2)C1O` (stereo partly drawn), the GI50 with A549 was < 0.0221 µM (active); in the experiment on BT-549, < 0.0246 µM (active); in the experiment with CCRF-CEM, 0.0559 µM (active); with EKVX it was < 0.0474 µM (active); in the experiment with HCT-15, 0.0826 µM; in the experiment with HL-60, < 0.04 µM (active). Moreover, the GI50 in the experiment with KM12 is 0.296 µM (active); in the experiment on MDA-N it was 0.0166 µM (active); in the experiment on MOLT-4, < 0.0162 µM (active); in the experiment with NCI-H226, 0.151 µM (active); with NCI-H23 it was 0.0262 µM (active); in the experiment with OVCAR-8, 0.0472 µM (active). Besides, the GI50 is < 0.01 µM (active) with SF-539, 0.114 µM (active) with SK-MEL-2, < 0.0193 µM (active) in the experiment with SK-OV-3 and 0.111 µM (active) with T47D.
As for `COc1ccc(C2=NN(C(=O)c3cccnc3)C(O)(c3cc(F)c(Cl)cc3Cl)C2)cc1OC` (stereo not drawn), the GI50 was 20.4 µM (inactive) with A549; 19.3 µM (inactive) in the experiment on BT-549; 11.4 µM (inactive) in the experiment on CCRF-CEM; 19.6 µM (inactive) with EKVX; 14.8 µM in the experiment on HCT-15; 12.8 µM (inactive) with HL-60. Besides, the GI50 in the experiment on KM12 was 19.1 µM (inactive); in the experiment with MDA-N, 21.3 µM (inactive); with MOLT-4 it was 8.97 µM (inactive); in the experiment with NCI-H226 it was 12.8 µM (inactive); in the experiment on NCI-H23 it was 20.4 µM (inactive); with OVCAR-8 it was 14.5 µM (inactive). Further, the GI50 is 16.1 µM (inactive) in the experiment with SF-539, 14.8 µM (inactive) in the experiment with SK-MEL-2, 26.1 µM (inactive) with SK-OV-3 and 24 µM (inactive) in the experiment with T47D.
`CO/C=C(/C(=O)OC)[C@@H]1C[C@@H]1c1ccc2ccccc2c1`: the GI50 in the experiment on A549 is 18.7 µM (inactive); with BT-549 it was 21.8 µM (inactive); in the experiment with CCRF-CEM it was 27.6 µM (inactive); with EKVX, 19.2 µM (inactive); in the experiment with HCT-15, 18.8 µM; in the experiment with HL-60, 18.3 µM (inactive). Besides, the GI50 was 21.7 µM (inactive) in the experiment on KM12; 20.4 µM (inactive) in the experiment on MDA-N; 16.4 µM (inactive) with MOLT-4; 29.2 µM (inactive) with NCI-H226; 28.2 µM (inactive) in the experiment on NCI-H23; 34 µM (inactive) with OVCAR-8. Besides, the GI50 with SF-539 was 19.5 µM (inactive); in the experiment on SK-MEL-2, 15.2 µM (inactive); in the experiment with SK-OV-3, 22.2 µM (inactive); in the experiment with T47D, 20.9 µM (inactive).
In the case of `CC(=O)On1c(-c2ccccc2-c2nc3ccccc3n2OC(C)=O)nc2ccccc21`, the GI50 in the experiment on A549 was 41.3 µM (inactive); in the experiment on BT-549, 30.3 µM (inactive); in the experiment on CCRF-CEM it was 41.3 µM (inactive); in the experiment with EKVX, > 10 µM (inactive); with HCT-15, 67.5 µM; with HL-60 it was 14.7 µM (inactive). Further, the GI50 is 22.5 µM (inactive) in the experiment with KM12; 21 µM (inactive) in the experiment with MDA-N; 11.3 µM (inactive) with MOLT-4; 25.9 µM (inactive) with NCI-H226; 7.48 µM (inactive) in the experiment with NCI-H23; 36.5 µM (inactive) in the experiment on OVCAR-8. Also, the GI50 with SF-539 is 42.7 µM (inactive); in the experiment with SK-MEL-2, 22.4 µM (inactive); in the experiment with SK-OV-3, 55.1 µM (inactive); with T47D, 17.7 µM (inactive).
As for `CN1CCC[N+](C)=C1c1ccccc1`, the GI50 with A549 was > 100 µM (inactive); in the experiment with BT-549, > 100 µM (inactive); in the experiment with CCRF-CEM it was > 100 µM (inactive); with EKVX it was > 100 µM (inactive); with HCT-15, over 100 µM; with HL-60, > 100 µM (inactive). Moreover, the GI50 in the experiment with KM12, with MDA-N, in the experiment with MOLT-4, in the experiment with NCI-H226, with NCI-H23 and with OVCAR-8 was > 100 µM (inactive) throughout. Besides, the GI50 in the experiment on SF-539, in the experiment on SK-MEL-2, in the experiment on SK-OV-3 and in the experiment on T47D was > 100 µM (inactive) each time.
`CC1CCCN1CCCOC(=O)c1ccc(OC2C=CCCC2)cc1` (stereo not drawn): the GI50 was 42.1 µM (inactive) in the experiment with A549; 40.6 µM (inactive) in the experiment with BT-549; 30.3 µM (inactive) in the experiment on CCRF-CEM; 51.4 µM (inactive) with EKVX; 23.3 µM in the experiment on HCT-15; 17.4 µM (inactive) in the experiment with HL-60. For the same compound, the GI50 in the experiment on KM12 was 38.2 µM (inactive); in the experiment on MDA-N, 39.5 µM (inactive); with MOLT-4 it was 25.1 µM (inactive); with NCI-H226, 29.4 µM (inactive); with NCI-H23, 25.4 µM (inactive); in the experiment with OVCAR-8 it was 47.6 µM (inactive). Further, the GI50 with SF-539 is 25.6 µM (inactive); with SK-MEL-2 it was > 100 µM (inactive); in the experiment with SK-OV-3 it was 56.1 µM (inactive); in the experiment on T47D, 13.5 µM (inactive).
As for `CN(NC(=O)c1ccc(Cl)cc1)C1=NCCCCN1`, the GI50 is > 100 µM (inactive) with A549; > 100 µM (inactive) in the experiment with BT-549; > 100 µM (inactive) in the experiment on CCRF-CEM; > 100 µM (inactive) in the experiment with EKVX; over 100 µM in the experiment on HCT-15; > 100 µM (inactive) in the experiment with HL-60. The GI50 in the experiment with KM12, with MDA-N, in the experiment on MOLT-4, in the experiment with NCI-H226, with NCI-H23 and in the experiment with OVCAR-8 was > 100 µM (inactive) throughout. Also, the GI50 in the experiment with SF-539, in the experiment with SK-MEL-2, in the experiment on SK-OV-3 and in the experiment on T47D was > 100 µM (inactive) each time.
Consider `CC(C)(C)OC(=O)N1CCCC1C(=O)NC(c1ccccc1)c1ccccc1` (stereo not drawn), for which the GI50 in the experiment with A549 was > 100 µM (inactive); in the experiment on BT-549, > 100 µM (inactive); in the experiment with CCRF-CEM it was > 100 µM (inactive); in the experiment on EKVX, > 100 µM (inactive); with HCT-15, over 100 µM; in the experiment on HL-60, > 100 µM (inactive). The GI50 in the experiment on KM12, in the experiment on MDA-N, with MOLT-4, with NCI-H226, with NCI-H23 and with OVCAR-8 was > 100 µM (inactive) throughout. Besides, the GI50 in the experiment with SF-539, in the experiment with SK-MEL-2, in the experiment with SK-OV-3 and with T47D was > 100 µM (inactive) in each case.
For the compound `COC(=O)CCc1ccc2c(c1)[C@H](C(=O)OC)[C@@H](c1ccc(O)cc1)O2`, the GI50 in the experiment with A549 was > 100 µM (inactive); in the experiment on BT-549, 74.5 µM (inactive); in the experiment on CCRF-CEM it was 59.2 µM (inactive); with EKVX it was > 100 µM (inactive); in the experiment with HCT-15, 58.9 µM; in the experiment with HL-60, 90.2 µM (inactive). In addition, the GI50 in the experiment on KM12 is > 100 µM (inactive); in the experiment with MDA-N, > 100 µM (inactive); in the experiment on MOLT-4, 35.6 µM (inactive); with NCI-H226, 25.5 µM (inactive); with NCI-H23 it was 71.6 µM (inactive); with OVCAR-8, > 100 µM (inactive). For the same compound, the GI50 was 25.6 µM (inactive) in the experiment on SF-539, > 100 µM (inactive) with SK-MEL-2, > 100 µM (inactive) in the experiment with SK-OV-3 and 78.2 µM (inactive) in the experiment on T47D.
Consider `NC(=O)Cc1nc2c(N)ncnc2n1C1OC(CO)C(O)C1O` (stereo not drawn), for which the GI50 with A549 is > 100 µM (inactive); in the experiment with BT-549, > 100 µM (inactive); in the experiment on CCRF-CEM it was > 100 µM (inactive); in the experiment with EKVX it was > 100 µM (inactive); with HCT-15, over 100 µM; in the experiment with HL-60, > 100 µM (inactive). In addition, the GI50 with KM12, in the experiment with MDA-N, in the experiment on MOLT-4, in the experiment with NCI-H226, with NCI-H23 and with OVCAR-8 was > 100 µM (inactive) throughout. Moreover, the GI50 in the experiment with SF-539, in the experiment on SK-MEL-2, with SK-OV-3 and with T47D was > 100 µM (inactive) throughout.
Consider `COc1ccc(CC2Cc3ccccc3CCN2)cc1OC` (stereo not drawn), for which the GI50 in the experiment with A549 was 29.8 µM (inactive); in the experiment on BT-549, > 50 µM (inactive); with CCRF-CEM, 28.5 µM (inactive); in the experiment with EKVX it was 26.2 µM (inactive); in the experiment with HCT-15, over 50 µM; in the experiment on HL-60, 13.2 µM (inactive). Besides, the GI50 in the experiment with KM12 is > 50 µM (inactive); with MDA-N, > 50 µM (inactive); in the experiment with MOLT-4, 20.3 µM (inactive); with NCI-H226, 12.1 µM (inactive); in the experiment on NCI-H23, > 50 µM (inactive); in the experiment with OVCAR-8, > 50 µM (inactive). Moreover, the GI50 was 37.8 µM (inactive) in the experiment on SF-539, > 50 µM (inactive) with SK-MEL-2, > 50 µM (inactive) with SK-OV-3 and 46.5 µM (inactive) with T47D.
As for `NC(Cc1cccc([N+](=O)[O-])c1)C(=O)O` (stereo not drawn), the GI50 in the experiment on A549 is > 100 µM (inactive); in the experiment with BT-549, > 100 µM (inactive); in the experiment with CCRF-CEM, > 100 µM (inactive); with EKVX it was > 100 µM (inactive); in the experiment on HCT-15, over 100 µM; with HL-60, > 100 µM (inactive). For the same compound, the GI50 in the experiment with KM12, in the experiment with MDA-N, with MOLT-4, in the experiment with NCI-H226, with NCI-H23 and with OVCAR-8 was > 100 µM (inactive) in each case. Further, the GI50 in the experiment on SF-539, in the experiment on SK-MEL-2, with SK-OV-3 and with T47D was > 100 µM (inactive) in each case.
